Data on 1 compound can be found in US20200147058A1, “KRAS INHIBITOR FOR USE IN TREATING CANCER” (Friedrich-Alexander-Universitat Erlangen-Numberg, priority 2016, published 2020).

The subject of one data set is melanoma cells. As to the kind of experiment: lactate dehydrogenase (LDH) quantification in cell supernatants after low dose DR. The conditions noted are these: low dose DR (2 μM), 24 hours. The data set is classed as cell-based, human.
Data set [1] concerns murine hepatoma cell line Hepa129. As to the kind of experiment: viable cells counted by microscopy. The data set is classed as cell-based. The note with it: 24 hours. The method, then:
FIGS. 12A through 12C depict Murine Hepatoma Cells (Hepta129) Sensitive for Small Molecule KRAS Inhibition in vitro and in vivo. […] is exemplary images (4-fold) depicting murine Hepatoma Cells (Hepa129) treated for 24 hours with Deltarasin (DR) and/or Sorafenib (SF) using different concentration of inhibitors.

Data set [2] concerns Htz19 melanoma cells. Put plainly: three-dimensional colony formation assay. The data set is classed as cell-based, human. The conditions noted are these: Htz19 (BRAFi primary sensitive); DR 5 μM, PLX 10 μM, alone or combined.
Data set [3] has as its system pancreatic adenocarcinoma cells. The conditions noted are these: Zimmermann et al., 2013; cited from earlier work.
Data set [4] concerns melanoma cell lines (Mel Im, Mel Juso and Mel Ei). Put plainly: toxicity (images) in melanoma cell lines. The note with it: 5 μM, 24 hours. In kind it is cell-based, human. From the text:
(§1) FIGS. 4A through 4H depict that small Molecule KRAS Inhibition Reduces Proliferation and Induces Apoptosis in Melanoma. FIGS. 4A and 4B show proliferation (slope of cell index) of Mel Juso (FIG. 4A) and Mel Im (FIG. 4B) cells treated with DMSO and different concentrations of the KRAS small molecule inhibitor Deltarasin (DR). The cell index as dimensionless parameter for cell proliferative ability was used to determine the half maximal inhibitory concentration (IC50, small graphs) of DR. […] FIG. 4D illustrates exemplary images of different melanoma cell lines (Mel Im, Mel Juso and Mel Ei) treated with 5 μM DR or 5 μM DMSO, respectively, for 24 hours. FIGS. 4E and 4F show images of fibroblast cell lines derived from two different donors (F1, F2) and melanocytes (NHEM) treated DR (20 μM, 48 hours) or DMSO (FIG. 4E), and lactate dehydrogenase (LDH) quantification (FIG. 4F) in cell supernatants (optic density, OD) of NHEM after treatment with low dose DMSO, DR (5 μM), and DR (10 μM), respectively.

The subject of data set [5] is murine hepatoma cell line Hepa129. Put plainly: cell cycle FACS analysis (propidium iodide staining). The data set is classed as cell-based. The conditions noted are these: 5-6 hours of treatment. From the text:
FIG. 13 depicts Deltarasin Inducing G2/M-Cell Cycle Arrest in Murine HCC Cells.
For orientation: Flow cytometry measures light scatter and fluorescence of single cells or particles in a stream.

Data set [6] relates to Mel Im cells. Put plainly: three-dimensional, anchorage-independent colony-forming assay. The data set is classed as cell-based, human. The conditions noted are these: Mel Im (BRAFi primary sensitive); DR 5 μM, PLX 10 μM, alone or combined.
The test system of data set [7] is Mel Juso cells. As to the kind of experiment: FACS analysis of apoptosis (Annexin / propidium iodide). The data set is classed as cell-based, human.
Text: as §1
(§2) FIGS. 5A through 5D show time-dependent measurement of colony diameters (exemplary data in top panels) in three-dimensional, anchorage-independent “colony-forming” assays (FIGS. 5A and 5B: Mel Im, FIGS. 5C and 5D: Mel Juso). Exemplary Images (middle) and corresponding quantification of colony diameters (bottom panels, summarized data of n=3 experiments at day 19 after seeding) are also depicted. Treatments were performed in four different groups (10 μM DMSO, 5 μM Deltarasin=DR, M PLX-4032=PLX (vemurafenib), or combination of 10 μM PLX+[…]). Effects on i) colony formation (FIGS. 5A and 5C, treatment at day 1) and ii) proliferation of pre-formed colonies (FIGS. 5B and 5D, treatment at day 7 and 13) were analyzed. […] FIG. 5F show images of PLX-primary resistant Mel Juso cells treated with DMSO, DR (5 μM), high dose PLX (20 μM) and a combination of 5 μM DR+10 μM PLX for 24 hours. […] Cells were treated for 5 hours with DMSO, 5 μM Deltarasin (DR), 10 μM PLX, or a combination of 10 μM PLX and 5 μM DR. According to exemplary images for Annexin and propidium iodide (PI) staining are depicted for Mel Im. (FIG. 5H) Mel Im and Mel Juso were transfected with control si-RNA (si-CTR) or with si-KRAS (si-KR). Two subgroups (blue and red) were additionally treated with 10 μM PLX (Vemurafenib) for 24 hours, with subsequent flow cytometric quantification of tumor cell apoptosis according to FIG. 5G. Exemplary images for Annexin and propidium iodide (PI) staining are depicted for Mel Im.

The subject of data set [8] is Mel Im cells. Described as above. The data set is classed as cell-based, human.
Text: as §1, §2

The next data set deals with PLC cells. Put plainly: Western blot pERK- and pAKT protein levels. In kind it is cell-based, human. The conditions noted are these: Deltarasin vs DMSO. (Immunoblotting shows a protein as a band on a membrane.)
The subject of data set [9] is Mel Juso cells. Put plainly: real-time cell proliferation (slope of cell index). The data set is classed as cell-based, human. The conditions noted are these: different concentrations of DR vs DMSO.
Text: as §1

In data set [10] the test system is Mel Im cells. As to the kind of experiment: real-time cell proliferation (slope of cell index). The conditions noted are these: different concentrations of DR vs DMSO. The data set is classed as cell-based, human.
Text: as §1

A further data set concerns Hep3B. Put plainly: real-time cell proliferation assay. In kind it is cell-based, human. The conditions noted are these: DR doses.
The test system of the next data set is Hep3B cells. Put plainly: Western blot pERK- and pAKT protein levels. The conditions noted are these: Deltarasin vs DMSO. The data set is classed as cell-based, human.
Data set [11] has as its system Htz19 melanoma cells. Put plainly: FACS analysis of apoptosis. The data set is classed as cell-based, human. The conditions noted are these: 5 hours, 5 μM DR.
Data set [12] concerns human fibroblast cell lines. Put plainly: toxicity in non-tumor cells (images). The conditions noted are these: doses up to 20 μM, 48 hours. In kind it is cell-based.
Text: as §1

In data set [13] the test system is Mel Im cells. As to the kind of experiment: long-term treatment, emergence of surviving tumor cells and drug resistance. The data set is classed as cell-based, human. The note with it: 28 days, IC50 or 2×IC50.
Text: as §1
FIGS. 6A through 6H depict that KRASi Prevents Emergence of Resistance and KRAS Expression is Regulated Dynamically in Acquired Resistance to BRAFi. […] Asterisks indicate significant differences (p<0.05) as compared to according control (0 μM PLX). […] Densitometric values (DM) are also shown, representing relative quantifications. […]

Data set [14] concerns normal human epidermal melanocytes (NHEM). As to the kind of experiment: toxicity in non-tumor cells (images, LDH). In kind it is cell-based. The note with it: doses up to 20 μM.
Text: as §1

The subject of a further data set is HepG2 hepatoma cells. Put plainly: Annexin V / PI staining with FACS analysis of apoptosis. The note with it: 8 μM. In kind it is cell-based, human.
Where [15] appears, read: 5 hours, 5 μM DR, 10 μM PLX or combination.

In the case of `c1ccc(Cn2c(-c3ccc(OC[C@H](C4CCNCC4)n4c(-c5ccccc5)nc5ccccc54)cc3)nc3ccccc32)cc1` [Deltarasin, (S)-1-Benzyl-2-(4-(2-(2-phenyl-1H-benzo[d]imidazol-1-yl)-2-(piperidin-4-yl)ethoxy)phenyl)-1H-benzo[d]imidazole], the “lactate dehydrogenase (LDH) amounts in cell supernatants” value in the data set with melanoma cells is recorded as “sufficient to increase lactate dehydrogenase (LDH) amounts”. Besides, in data set [1], the “tumor cell proliferation (viable cells)” value was “marked effects”. Moreover, the “three-dimensional colony formation and proliferation of pre-formed colonies” value in the data set with Htz19 melanoma cells [2] and in the data set on Mel Im cells [6] was “similarly effective as PLX” each time. Besides, in [3], the “proliferation of pancreatic adenocarcinoma cells” value was “reduce proliferation”. For the same compound, in data set [4], the “toxicity in different melanoma cell lines” value is listed as “marked toxicity”. Also, the “G2/M-Cell Cycle Arrest” value in data set [5] is on record as “dose-dependently induces”. Further, the SubG1 fractions result in data set [5] is “increased”. The “induction of apoptosis (FACS)” value in the data set with Mel Juso cells [7] (5 μM for 8, 16 and 24 hours) is listed as “marked time-dependent induction of apoptosis”; in the data set with Mel Im cells [8] (5 μM for 8, 16 and 24 hours), “marked time-dependent induction of apoptosis”; in the data set on HepG2 hepatoma cells, “marked dose-dependent induction of apoptosis”. For the same compound, the “apoptosis (FACS), short treatment” value in the data set with Mel Juso cells [7] (setting [15]) was “did not induce apoptosis”; with Mel Im cells [8] (setting [15]) it was “only slightly induced apoptosis”; in the data set on Htz19 melanoma cells [11] it was “only slightly induced apoptosis”. The “pERK- and pAKT protein levels” value with PLC cells and with Hep3B cells was “significant reduction” each time. In addition, the “inhibition of proliferation (slope of cell index)” value in the data set on Mel Juso cells [9] and in the data set with Mel Im cells [10] was “dose-dependent inhibition of proliferation” each time. In the data set on Hep3B, the inhibition of proliferation entry is given as “strong dose-dependent inhibition of proliferation”. Moreover, in data set [12], the “toxic effects in human fibroblast cell lines” value was “no toxic effects”. The “surviving tumor cells after long-term treatment” value with Mel Im cells [13] is “no surviving tumor cells were detected”. Further, the “toxic effects in normal human epidermal melanocytes (NHEM)” value in data set [14] is listed as “no toxic effects”.
